The source of these data is PMC3171627 (Bioorganic & medicinal chemistry letters, 2011).

The EC50 is the concentration at which the effect is half-maximal.

For assay [1], the target named is CB1 (Homo sapiens, UniProt P21554). As to conditions: GTPγ[35S] assay; antagonist series; cited from earlier work.
The test system of assay [2] is CB2. As to conditions: read-out: CB2 functional activity EC50; GTPγ[35S] assay; antagonist series; cited from earlier work.
Assay [3] has as its target CB2 receptor (Mus musculus, UniProt P47936). The assay is described as follows: visualization of CB2 receptor binding by CD4+ T cells, confocal microscopy. The assay is classed as cell-based. Conditions: 5 µM, on ice for 30 minutes, T cells from peripheral lymph nodes of BALB/C mice.

Sequence of CB1 (P21554 whole entry, species assumed): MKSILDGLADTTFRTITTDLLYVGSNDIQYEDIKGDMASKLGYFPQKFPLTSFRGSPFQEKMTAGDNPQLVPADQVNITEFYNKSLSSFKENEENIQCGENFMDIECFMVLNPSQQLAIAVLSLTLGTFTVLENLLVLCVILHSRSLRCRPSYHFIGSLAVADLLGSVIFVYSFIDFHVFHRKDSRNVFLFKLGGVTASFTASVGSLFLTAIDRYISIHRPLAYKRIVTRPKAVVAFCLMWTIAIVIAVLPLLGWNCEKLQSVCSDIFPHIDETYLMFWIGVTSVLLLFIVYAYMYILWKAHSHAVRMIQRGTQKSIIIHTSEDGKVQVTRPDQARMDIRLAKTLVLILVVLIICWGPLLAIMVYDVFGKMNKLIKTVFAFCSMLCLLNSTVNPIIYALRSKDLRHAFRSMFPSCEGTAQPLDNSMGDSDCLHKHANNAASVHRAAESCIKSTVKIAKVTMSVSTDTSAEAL
Sequence of CB2 receptor (P47936 whole entry): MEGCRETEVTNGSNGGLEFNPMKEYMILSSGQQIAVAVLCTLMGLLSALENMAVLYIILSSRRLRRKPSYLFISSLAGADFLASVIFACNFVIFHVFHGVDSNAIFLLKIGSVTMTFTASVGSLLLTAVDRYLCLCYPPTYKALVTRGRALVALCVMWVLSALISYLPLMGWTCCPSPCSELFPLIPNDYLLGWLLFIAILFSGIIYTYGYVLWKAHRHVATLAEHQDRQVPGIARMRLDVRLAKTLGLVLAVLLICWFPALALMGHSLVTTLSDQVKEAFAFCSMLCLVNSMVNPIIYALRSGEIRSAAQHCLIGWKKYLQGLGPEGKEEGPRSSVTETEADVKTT

Consider `CCCCCN1C(=O)/C(=N\NC(=O)CN2CCOCC2)c2ccc(OC)cc21` [Compound 5], for which the CB1 activity entry in assay [1] is on record as “did not show any CB1 functional activity”. Further, in assay [2], the EC50 was 13.3 nM.
`CCCCCN1C(=O)/C(=N\NC(=O)CN(C)c2ccc([N+](=O)[O-])c3nonc23)c2ccc(OC)cc21` [Compound 6]: in assay [3], the “staining of CD4+ T cells” value is reported as “stained the CD4^+ T cells”.
